# Laboratory results: patent publication US11820782B2, “Salt forms of amino pyrazine purine based selective kinase inhibitor” (FTG BIO LLC, priority 2018, dated 2023)
# What was measured:
# [1] = Equilibrium solubility in pH 6.8 0.01M phosphate buffer by HPLC; type: physicochemical; conditions: pH6.8 0.01M potassium dihydrogen phosphate buffer
# [2] = 1 week stability of shortlisted salts at 40° C./75% RH, open; type: physicochemical; conditions: after 7 days at 40° C./75% RH, open
substance,measurement,setting,value
Fumarate,Solubility in pH 6.8 buffer,[1],2.62 mg/mL
same,% purity,[2]; HPLC,95.81%
same,XRD,[2]; physical form vs initial,Same as initial form
